Laboratory results reported in US10131652B2, “Pyrimidinyloxy benzene derivatives as herbicides” (E. I. DU PONT DE NEMOURS AND COMPANY, priority 2014, dated 2018).

Columns and labels:
Format in all cases: in vivo
[1] = system: blackgrass (Alopecurus myosuroides); assay: Test B postemergence plant response
How it was run: (§1)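 Pots, loam soil + sand; postemergence treatment at 1–2 leaf stage, 2–10 cm; greenhouse ~10 d; visual injury score 0 (none) to 100 (complete control) relative to untreated controls.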

[2] = system: galium (catchweed bedstraw, Galium aparine); assay: Test B postemergence plant response
How it was run: as §1

[3] = system: barnyardgrass (Echinochloa crus-galli); assay: Test C flooded paddy test plant response; conditions: Flood, 250 g ai/ha; scale of 0 to 100 where 0 is no effect and 100 is complete control; 13 to 15 days
How it was run: (§2)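 Plants grown to the 2-leaf stage; pots flooded to 3 cm above soil, test compounds applied directly to paddy water, depth maintained throughout. Greenhouse for 13 to 15 days, then visual rating versus controls on a 0–100 scale (0 no effect, 100 complete control).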

rice (Oryza sativa) = assay: Test C flooded paddy test plant response; conditions: Flood, 250 g ai/ha; scale of 0 to 100 where 0 is no effect and 100 is complete control; 13 to 15 days
How it was run: as §2

[4] = system: small-flower umbrella sedge (Cyperus difformis); assay: Test C flooded paddy test plant response; conditions: Flood, 250 g ai/ha; scale of 0 to 100 where 0 is no effect and 100 is complete control; 13 to 15 days
How it was run: as §2

[5] = system: ducksalad (Heteranthera limosa); assay: Test C flooded paddy test plant response; conditions: Flood, 250 g ai/ha; scale of 0 to 100 where 0 is no effect and 100 is complete control; 13 to 15 days
How it was run: as §2

[6] = system: wheat (Triticum aestivum); assay: Test B pre-/postemergence plant response
From the text: (§3) Seeds of plant species selected from bamyardgrass (Echinochloa crus-galli), kochia (Kochia scoparia), ragweed (common ragweed, Ambrosia elatior), Italian ryegrass (Lolium multiflorum), large (Lg) crabgrass (Digitaria sanguinalis), giant foxtail (Setaria faberii), momingglory (Ipomoea spp.), pigweed (Amaranthus retroflexus), velvetleaf (Abutilon theophrasti), wheat (Triticum aestivum), and corn (Zea mays) were planted into a blend of loam soil and sand and treated preemergence with a directed soil spray using test chemicals formulated in a non-phytotoxic solvent mixture which included a surfactant. At the same time, plants selected from these crop and weed species and also blackgrass (Alopecurus myosuroides), and galium (catchweed bedstraw, Galium aparine) were planted in pots containing the same blend of loam soil and sand and treated with postemergence applications of test chemicals formulated in the same manner. Plants ranged in height from 2 to 10 cm and were in the one- to two-leaf stage for the postemergence treatment. Treated plants and untreated controls were maintained in a greenhouse for approximately 10 days, after which time all treated plants were compared to untreated controls and visually evaluated for injury. Plant response ratings, summarized in Table B, are based on a 0 to 100 scale where 0 is no effect and 100 is complete control. A dash (-) response means no test result.

corn (Zea mays) = assay: Test B pre-/postemergence plant response
From the text: as §3

[7] = system: Italian ryegrass (Lolium multiflorum); assay: Test B pre-/postemergence plant response
From the text: as §3

[8] = system: barnyardgrass (Echinochloa crus-galli); assay: Test B pre-/postemergence plant response
From the text: as §3

kochia (Kochia scoparia) = assay: Test B pre-/postemergence plant response
From the text: as §3

[9] = system: giant foxtail (Setaria faberii); assay: Test B pre-/postemergence plant response
From the text: as §3

[10] = system: pigweed (Amaranthus retroflexus); assay: Test B pre-/postemergence plant response
From the text: as §3

[11] = system: ragweed (common ragweed, Ambrosia elatior); assay: Test B pre-/postemergence plant response
From the text: as §3

[12] = 31 g ai/ha, Postemergence, 0 to 100 scale, 0 no effect, 100 complete control
[13] = 125 g ai/ha, postemergence, 0 to 100 scale, 0 no effect, 100 complete control
[14] = 31 g ai/ha, Preemergence, 0 to 100 scale where 0 is no effect and 100 is complete control
[15] = Preemergence, 125 g ai/ha, 0 to 100 scale (0 no effect, 100 complete control)
[16] = Postemergence, 500 g ai/ha, 0 to 100 scale (0 no effect, 100 complete control)
[17] = Preemergence, 500 g ai/ha, 0 to 100 scale where 0 is no effect and 100 is complete control

Structure (SMILES)	Plant response rating, Blackgrass [1, 13]	Plant response rating, Galium [2, 13]	Barnyardgrass plant response rating [3]	Rice plant response rating (rice (Oryza sativa))	Sedge, Umbrella plant response rating [4]	Ducksalad plant response rating [5]	Plant response rating, Wheat [6, 13]	Plant response rating, Corn (corn (Zea mays); [13])	Plant response rating, Ryegrass, Italian [7, 13]	Ryegrass, Italian plant response rating [7, 15]	Plant response rating, Barnyardgrass [8, 13]	Barnyardgrass plant response rating [8, 15]	Plant response rating, Kochia (kochia (Kochia scoparia); [13])	Kochia plant response rating (kochia (Kochia scoparia); [15])	Plant response rating, Foxtail, Giant [9, 13]	Foxtail, Giant plant response rating [9, 15]	Plant response rating, Pigweed [10, 13]	Pigweed plant response rating [10, 15]	Plant response rating, Ragweed [11, 13]	Ragweed plant response rating [11, 15]	other results
FC(F)(F)COCc1cc(-c2ccccc2Oc2ncc(Br)cn2)on1 [Compound 129]	0	10	0	0	0	0	0	10	0	0	10	0	10	0	10	0	30	0	0	0	Plant response rating, Blackgrass [1, 12]: 0; Plant response rating, Corn (corn (Zea mays); [12]): 0; Plant response rating, Ryegrass, Italian [7, 14]: 0; Plant response rating, Barnyardgrass [8, 12]: 0; Plant response rating, Barnyardgrass [8, 14]: 0; Plant response rating, Kochia (kochia (Kochia scoparia); [14]): 0; Plant response rating, Foxtail, Giant [9, 12]: 0; Plant response rating, Foxtail, Giant [9, 14]: 0; Plant response rating, Pigweed [10, 14]: 0; Plant response rating, Ragweed [11, 14]: 0
FC(F)Oc1cccc(Oc2ncc(Cl)cn2)c1-c1cc(C(F)F)no1 [Compound 132]	50	90	30	20	75	40	10	30	40	30	50	60	60	0	70	90	100	100	30	40	Plant response rating, Blackgrass [1, 12]: 20; Plant response rating, Corn (corn (Zea mays); [12]): 10; Plant response rating, Ryegrass, Italian [7, 14]: 0; Plant response rating, Barnyardgrass [8, 12]: 20; Plant response rating, Barnyardgrass [8, 14]: 20; Plant response rating, Kochia (kochia (Kochia scoparia); [14]): 0; Plant response rating, Foxtail, Giant [9, 12]: 30; Plant response rating, Foxtail, Giant [9, 14]: 60; Plant response rating, Pigweed [10, 14]: 90; Plant response rating, Ragweed [11, 14]: 0
FC(c1cc(-c2ccccc2Oc2ncc(Cl)cn2)no1)C(F)(F)F (stereo not drawn) [Compound 133]	70	100	40	40	80	80	10	30	30	50	60	70	90	90	50	90	100	100	30	10	Plant response rating, Blackgrass [1, 12]: 30; Plant response rating, Corn (corn (Zea mays); [12]): 10; Plant response rating, Ryegrass, Italian [7, 14]: 0; Plant response rating, Barnyardgrass [8, 12]: 20; Plant response rating, Barnyardgrass [8, 14]: 30; Plant response rating, Kochia (kochia (Kochia scoparia); [14]): 50; Plant response rating, Foxtail, Giant [9, 12]: 20; Plant response rating, Foxtail, Giant [9, 14]: 70; Plant response rating, Pigweed [10, 14]: 90; Plant response rating, Ragweed [11, 14]: 0
FC(F)(F)c1csc(-c2ccccc2Oc2ncc(Cl)cn2)n1 [Compound 137]	0	0	0	0	0	20	0	0	0	0	0	0	0	0	0	0	30	0	0	0	Plant response rating, Blackgrass [1, 16]: 0; Plant response rating, Galium [2, 16]: 20; Plant response rating, Wheat [6, 16]: 0; Plant response rating, Corn (corn (Zea mays); [16]): 20; Plant response rating, Ryegrass, Italian [7, 16]: 0; Plant response rating, Ryegrass, Italian [7, 17]: 0; Plant response rating, Barnyardgrass [8, 16]: 10; Plant response rating, Barnyardgrass [8, 17]: 10; Plant response rating, Kochia (kochia (Kochia scoparia); [16]): 60; Plant response rating, Kochia (kochia (Kochia scoparia); [17]): 10; Plant response rating, Foxtail, Giant [9, 16]: 20; Plant response rating, Foxtail, Giant [9, 17]: 0; Plant response rating, Pigweed [10, 16]: 90; Plant response rating, Pigweed [10, 17]: 20; Plant response rating, Ragweed [11, 16]: 0; Plant response rating, Ragweed [11, 17]: 0
FC(F)(F)c1csc(-c2ccccc2Oc2ncc(I)cn2)n1 [Compound 138]	0	0	0	0	0	20	0	0	0	0	0	0	0	0	0	0	0	0	0	0	Plant response rating, Blackgrass [1, 16]: 0; Plant response rating, Galium [2, 16]: 0; Plant response rating, Wheat [6, 16]: 0; Plant response rating, Corn (corn (Zea mays); [16]): 0; Plant response rating, Ryegrass, Italian [7, 16]: 0; Plant response rating, Ryegrass, Italian [7, 17]: 0; Plant response rating, Barnyardgrass [8, 16]: 0; Plant response rating, Barnyardgrass [8, 17]: 0; Plant response rating, Kochia (kochia (Kochia scoparia); [16]): 0; Plant response rating, Kochia (kochia (Kochia scoparia); [17]): 0; Plant response rating, Foxtail, Giant [9, 16]: 0; Plant response rating, Foxtail, Giant [9, 17]: 0; Plant response rating, Pigweed [10, 16]: 0; Plant response rating, Pigweed [10, 17]: 0; Plant response rating, Ragweed [11, 16]: 0; Plant response rating, Ragweed [11, 17]: 0
